Experimental data from publication PMC8951032, “Study of Biological Activities and ADMET-Related Properties of Novel Chlorinated N-arylcinnamamides” (International Journal of Molecular Sciences, 2022).
≈ marks a conversion by molar mass, not a printed value. Like-named read-outs stand apart in the source and are kept apart here.

What was measured:
[1] = tested on: Mycobacterium smegmatis ATCC 700084; test: In vitro antimycobacterial activity, broth dilution MIC; assay type: cell-based; settings: Mycolicibacterium smegmatis
[2] = tested on: methicillin-resistant S. aureus SA 630; test: In vitro antistaphylococcal activity, microtitration broth MIC; assay type: cell-based; settings: Staphylococcus aureus
[3] = tested on: Staphylococcus aureus ATCC 29213; test: as above; assay type: cell-based; settings: for MIC: Staphylococcus aureus
[4] = tested on: Mycobacterium marinum CAMP 5644; test: In vitro antimycobacterial activity, broth dilution MIC; assay type: cell-based; settings: CAMP5644, 504 h
[5] = tested on: methicillin-resistant S. aureus SA 3202; test: In vitro antistaphylococcal activity, microtitration broth MIC; assay type: cell-based; settings: Staphylococcus aureus
THP-1 cells = test: Cell death assay by flow cytometry (Annexin V / LIVE/DEAD); assay type: cell-based, human; settings: serum-free medium, 24 h
Description: Subsequently, compounds 2k and 2q were selected for analysis by flow cytometry and cytotoxic effects were detected after treatment of cells by 2k and 2q in serum-free medium at two selected concentrations, 1.0 µM and 0.5 µM, respectively. […] Moreover, 2k increased the number of dead cells (20%) (Figure 2). […] Thus, it can be assumed that 2k attenuates cell metabolism.
Annexin V eFluor450 (Invitrogene, Waltham, MA, USA) with LIVE/DEAD Fixable Far Red Dead Cell Stain Kit (Invitrogene) were used for the analysis of cell death. THP-1 cells resuspended in serum-free medium and treated by two selected drugs, such as 2q and 2k, by IC50 concentrations, 0.5 µM and 1.0 µM, respectively, for 24 h. Cells were double-stained by AnnexinV eFluor 450 (1:20) and LIVE/DEAD Fixable Far Red (3:1000). Finally, the cells were analysed by flow cytometer (Amnis CellStream; Luminex, Austin, TX, USA) and the data were evaluated by CellStream Analysis 1.2.55 software. The dot plots were divided into four quadrants. Live cells (low left quadrant), apoptosis (upper-left quadrant) and necrosis as a terminal stage of cell death (upper-right quadrant) were distinguished. Experiments were performed in duplicates and in three independent repetitions.

[6] = ATCC700084, 72 h, M. smegmatis ATCC 700084, three days, read-out: MIC MS
[7] = ATCC700084, M. smegmatis ATCC 700084, read-out: log(1/MIC [M]) MS (converted)
[8] = 24 h, MRSA SA 630, read-out: log(1/MIC [M]) MRSA2 (converted)
[9] = MRSA SA 630, 24 h, read-out: MIC MRSA2
[10] = ATCC29213, 24 h, S. aureus ATCC 29213, read-out: log(1/MIC [M]) SA (converted)
[11] = ATCC29213, S. aureus ATCC 29213, 24 h, read-out: MIC SA
[12] = M. marinum CAMP 5644, 21 days, read-out: MIC MM
[13] = M. marinum CAMP 5644, read-out: log(1/MIC [M]) MM (converted)
[14] = 24 h, MRSA SA 3202, read-out: log(1/MIC [M]) MRSA3 (converted)
[15] = MRSA SA 3202, 24 h, read-out: MIC MRSA3

| SMILES | MIC [1, 6] | MIC [1, 7] | MIC [2, 8] | MIC [2, 9] | MIC [3, 10] | MIC [3, 11] | MIC [4, 12] | MIC [4, 13] | MIC [5, 14] | MIC [5, 15] | activity against S. aureus and MRSA isolates (in words) [3] | number of dead cells (THP-1 cells; 2k 1.0 µM) | apoptosis (in words) (THP-1 cells; 2q 0.5 µM) | necrosis (in words) (THP-1 cells; 2q 0.5 µM) |
| --- | --- | --- | --- | --- | --- | --- | --- | --- | --- | --- | --- | --- | --- | --- |
| O=C(/C=C/c1ccc(Cl)cc1)Nc1cccc(C(F)(F)F)c1 [1i, (2E)-3-(4-Chlorophenyl)-N-[3-(trifluoromethyl)phenyl]prop-2-enamide] | > 0.000786 M | > 0.000794 M | 3.09e-06 M (≈ 1.01 µg/mL) | 3.07e-06 M (≈ 1 µg/mL) | 6.17e-06 M (≈ 2.01 µg/mL) | 6.14e-06 M (≈ 2 µg/mL) | > 0.000786 M | > 0.000794 M | 6.17e-06 M (≈ 2.01 µg/mL) | 6.14e-06 M (≈ 2 µg/mL) | – | – | – | – |
| O=C(/C=C/c1ccc(Cl)cc1)Nc1cc(Cl)cc(Cl)c1 [1p, (2E)-3-(4-Chlorophenyl)-N-(3,5-dichlorophenyl)prop-2-enamide] | 2.45e-05 M (≈ 8 µg/mL) | 2.45e-05 M (≈ 8.02 µg/mL) | 3.8e-07 M (≈ 0.124 µg/mL) | 3.83e-07 M (≈ 0.125 µg/mL) | 3.8e-07 M (≈ 0.124 µg/mL) | 3.83e-07 M (≈ 0.125 µg/mL) | > 0.000783 M | > 0.000776 M | 7.59e-07 M (≈ 0.248 µg/mL) | 7.65e-07 M (≈ 0.25 µg/mL) | submicromolar | – | – | – |
| O=C(/C=C/c1ccc(Cl)cc1)Nc1cc(C(F)(F)F)cc(C(F)(F)F)c1 [1q, (2E)-N-[3,5-bis(Trifluoromethyl)phenyl]-3-(4-chlorophenyl)prop-2-enamide] | 2.54e-06 M (≈ 1 µg/mL) | 2.51e-06 M (≈ 0.989 µg/mL) | 3.16e-07 M (≈ 0.125 µg/mL) | 3.18e-07 M (≈ 0.125 µg/mL) | 3.16e-07 M (≈ 0.125 µg/mL) | 3.18e-07 M (≈ 0.125 µg/mL) | > 0.00065 M | > 0.000646 M | 6.31e-07 M (≈ 0.248 µg/mL) | 6.35e-07 M (≈ 0.25 µg/mL) | submicromolar | – | – | – |
| O=C(/C=C/c1ccc(Cl)c(Cl)c1)Nc1ccccc1 [2a, (2E)-3-(3,4-Dichlorophenyl)-N-phenylprop-2-enamide] | 1.36e-05 M (≈ 3.97 µg/mL) | 1.38e-05 M (≈ 4.03 µg/mL) | > 0.000871 M | > 0.000876 M | 1.38e-05 M (≈ 4.03 µg/mL) | 1.36e-05 M (≈ 3.97 µg/mL) | 0.000876 M (≈ 256 µg/mL) | 0.000871 M (≈ 254 µg/mL) | > 0.000871 M | > 0.000876 M | – | – | – | – |
| O=C(/C=C/c1ccc(Cl)c(Cl)c1)Nc1cccc(C(F)(F)F)c1 [2i, (2E)-3-(3,4-Dichlorophenyl)-N-[3-(trifluoromethyl)phenyl]prop-2-enamide] | 5.55e-06 M (≈ 2 µg/mL) | 5.5e-06 M (≈ 1.98 µg/mL) | 1.38e-06 M (≈ 0.497 µg/mL) | 1.39e-06 M (≈ 0.501 µg/mL) | 1.38e-06 M (≈ 0.497 µg/mL) | 1.39e-06 M (≈ 0.501 µg/mL) | 5.55e-06 M (≈ 2 µg/mL) | 5.5e-06 M (≈ 1.98 µg/mL) | 1.38e-06 M (≈ 0.497 µg/mL) | 1.39e-06 M (≈ 0.501 µg/mL) | – | – | – | – |
| O=C(/C=C/c1ccc(Cl)c(Cl)c1)Nc1ccc(C(F)(F)F)cc1 [2j, (2E)-3-(3,4-Dichlorophenyl)-N-[4-(trifluoromethyl)phenyl]prop-2-enamide] | 2.78e-06 M (≈ 1 µg/mL) | 2.75e-06 M (≈ 0.992 µg/mL) | 3.72e-07 M (≈ 0.134 µg/mL) | 3.71e-07 M (≈ 0.134 µg/mL) | 6.92e-07 M (≈ 0.249 µg/mL) | 6.94e-07 M (≈ 0.25 µg/mL) | 2.78e-06 M (≈ 1 µg/mL) | 2.75e-06 M (≈ 0.992 µg/mL) | 6.92e-07 M (≈ 0.249 µg/mL) | 6.94e-07 M (≈ 0.25 µg/mL) | submicromolar | – | – | – |
| O=C(/C=C/c1ccc(Cl)c(Cl)c1)Nc1ccc(OC(F)(F)F)cc1 [2k, (2E)-3-(3,4-Dichlorophenyl)-N-[4-(trifluoromethoxy)phenyl]prop-2-enamide] | 1.06e-05 M (≈ 3.99 µg/mL) | 2.34e-06 M (≈ 0.882 µg/mL) | 1.32e-06 M (≈ 0.496 µg/mL) | 1.33e-06 M (≈ 0.5 µg/mL) | 2.95e-07 M (≈ 0.111 µg/mL) | 1.33e-06 M (≈ 0.5 µg/mL) | 2.66e-06 M (≈ 1 µg/mL) | 2.95e-07 M (≈ 0.111 µg/mL) | 1.32e-06 M (≈ 0.496 µg/mL) | 1.33e-06 M (≈ 0.5 µg/mL) | – | 20% | – | – |
| O=C(/C=C/c1ccc(Cl)c(Cl)c1)Nc1cc(C(F)(F)F)cc(C(F)(F)F)c1 [2q, (2E)-N-[3,5-bis(Trifluoromethyl)phenyl]-3-(3,4-dichlorophenyl)prop-2-enamide] | 2.34e-06 M (≈ 1 µg/mL) | 1.07e-05 M (≈ 4.59 µg/mL) | 1.35e-07 M (≈ 0.0578 µg/mL) | 1.36e-07 M (≈ 0.0582 µg/mL) | 1.32e-06 M (≈ 0.564 µg/mL) | 2.92e-07 M (≈ 0.125 µg/mL) | 2.92e-07 M (≈ 0.125 µg/mL) | 2.63e-06 M (≈ 1.13 µg/mL) | 2.95e-07 M (≈ 0.126 µg/mL) | 2.92e-07 M (≈ 0.125 µg/mL) | submicromolar | – | not observed | significantly induced |
